These results are taken from US20260078130A1, “NAMPT MODULATORS, PREPARATIONS, AND USES THEREOF” (SIRONAX LTD., priority 2022, published 2026).

SMILES strings stand for the structures. Where two headings read alike, the source gives them in different places.

The target in assay [1] is T1, human enzyme NAMPT (full length) (Homo sapiens, UniProt P43490).
T1 construct: human enzyme NAMPT (full length)
Briefly: NMN fluorescence biochemical assay (stimulation of NMN synthesis by NAMPT). The settings on record: for EC50: concentration giving half-maximal activation, read-out: Enzymatic EC50; for Enzymatic Emax: fold change of maximal activation compared to DMSO. In outline:
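Full-length human NAMPT (100 nM) was preincubated 15 min at 37 °C with compound in 50 mM Tris-HCl pH 7.5, 10 mM MgCl2, 2 mM DTT, then reacted 1 h at 37 °C with 50 μM NAM, 100 μM PRPP, 4 mM ATP (stated solution concentrations). NMN was derivatised with acetophenone/KOH then formic acid and read at Ex/Em 382/445 nm; EC50 and Emax (fold over DMSO) reported.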

Assay [2] relates to endogenous NAMPT in U2OS cells. Briefly: Cellular NAD+ modulation assay (NAD/NADH-Glo, U2OS cells). Type of assay: cell-based. The following applies: Homo sapiens; for maximal fold induction: read-out: Cellular Emax. In outline: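 NAD/NADH-Glo luminescence quantified NAD+ after acid treatment (60 °C, 15 min) and neutralization of DTAB lysates. Beforehand, U2OS cells seeded 16 h earlier received compound concentration series for 24 h at 37 °C. Values given as half-maximal activation concentration (EC50) and maximal fold change versus DMSO (Emax).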

Setting [3] is: NMN fluorescence assay, purified human NAMPT 100 nM.
The mark [4] stands for this setting: 24 hours incubation, cellular NAD+.
Setting [5] is: NMN synthesis by purified human NAMPT (100 nM).
[6] abbreviates: 24 hours incubation with compound.

For orientation: EC50 means the concentration that produces a half-maximal response.

T1 sequence (P43490 whole entry): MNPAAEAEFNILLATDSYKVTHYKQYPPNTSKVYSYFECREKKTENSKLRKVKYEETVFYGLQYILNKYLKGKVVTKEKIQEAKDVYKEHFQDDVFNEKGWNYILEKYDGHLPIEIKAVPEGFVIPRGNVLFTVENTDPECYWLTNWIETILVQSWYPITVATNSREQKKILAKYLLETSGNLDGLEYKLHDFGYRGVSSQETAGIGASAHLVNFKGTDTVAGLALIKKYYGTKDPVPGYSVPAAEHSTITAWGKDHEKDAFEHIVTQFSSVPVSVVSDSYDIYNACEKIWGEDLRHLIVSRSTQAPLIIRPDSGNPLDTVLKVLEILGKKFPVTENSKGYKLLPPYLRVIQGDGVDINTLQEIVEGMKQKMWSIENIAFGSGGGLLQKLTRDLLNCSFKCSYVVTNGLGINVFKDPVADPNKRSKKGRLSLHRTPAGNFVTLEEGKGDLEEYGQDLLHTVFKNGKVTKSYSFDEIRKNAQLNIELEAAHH

On to `O=C1c2ccccc2C(Cc2nc(Br)sc2Cl)N1Cc1ccc2[nH]nnc2c1` (stereo not drawn) [Compound 448, 2-((1H-benzo[d][1,2,3]triazol-5-yl)methyl)-3-((2-bromo-5-chlorothiazol-4-yl)methyl)isoindolin-1-one], for which, in assay [1] (setting [3]), the EC50 was below 0.5 µM. The “Enzymatic Emax” value in assay [1] is recorded as “A (A>3)”. Also, in assay [2] (setting [4]), the EC50 lay in the range of 0.5 to 5 µM and the maximal fold induction was above 1.5.
`O=C1c2ccccc2C(Cc2ncccc2Br)N1Cc1ccc2[nH]nnc2c1F` (stereo not drawn) [Compound 330, 3-((3-bromopyridin-2-yl)methyl)-2-((4-fluoro-1H-benzo[d][1,2,3]triazol-5-yl)methyl)isoindolin-1-one]: the EC50 in assay [1] (setting [3]) is below 0.5 µM. For the same compound, in assay [1], the “Enzymatic Emax” value was “A (A>3)”. In assay [2] (setting [4]), the EC50 is 0.5 to 5 µM and the maximal fold induction is above 1.5.
The like results for `CN1CC(c2ccc3c(c2)C(Cc2c(Cl)cnn2C)N(Cc2ccc4[nH]nnc4c2)C3=O)C1` (stereo not drawn) [Compound 385, 2-((1H-benzo[d][1,2,3]triazol-5-yl)methyl)-3-((4-chloro-1-methyl-1H-pyrazol-5-yl)methyl)-5-(1-methylazetidin-3-yl)isoindolin-1-one] were, in that order, 0.5 to 5 µM, “B (3≥B>2)”, 5 to 50 µM and above 1.5.
For `O=C1c2ccccc2CCN1Cc1ccc(O)cc1` [Compound 2, 2-(4-hydroxybenzyl)-3,4-dihydroisoquinolin-1(2H)-one], the EC50 in assay [1] (setting [5]) and in assay [2] (setting [6]) was 0.5 to 5 µM each time. Also, in assay [1], the “Enzymatic Emax” value was “A (A>3)”. Further, in assay [2] (setting [6]), the maximal fold induction was above 1.5.
As for `Cn1ncc(Cl)c1CC1c2ccccc2C(=O)N1Cc1ccc(Cl)cc1` (stereo not drawn) [Compound 573, 3-((4-chloro-1-methyl-1H-pyrazol-5-yl)methyl)-2-(4-chlorobenzyl)isoindolin-1-one], the EC50 in assay [1] (setting [3]) was at least 5 µM. Also, the “Enzymatic Emax” value in assay [1] is on record as “C (2≥C)”. In assay [2] (setting [4]), the EC50 is 5 to 50 µM and the maximal fold induction was at most 1.2.
The like results for `Cc1n[nH]cc1C#CCN1C(=O)c2ccccc2C1Cc1c(Cl)cnn1C` (stereo not drawn) [Compound 478, 3-((4-chloro-1-methyl-1H-pyrazol-5-yl)methyl)-2-(3-(3-methyl-1H-pyrazol-4-yl)prop-2-yn-1-yl)isoindolin-1-one] were, in that order, 0.5 to 5 µM, “B (3≥B>2)”, 0.5 to 5 µM and above 1.5.
With `C[C@H]1c2cc(C#N)ccc2C(=O)N1Cc1ccc2[nH]c(=O)oc2c1` (single isomer, unassigned) [Compound 186], in assay [1] (setting [5]), the EC50 is at least 5 µM. In addition, the “Enzymatic Emax” value in assay [1] is “B (3≥B>2)”. Moreover, in assay [2] (setting [6]), the EC50 lay within 0.5 to 5 µM and the maximal fold induction was above 1.5.
For the compound `Cc1ccnc(CC2c3ccccc3C(=O)N2Cc2ccc3[nH]c(=O)oc3c2)c1` (stereo not drawn) [Compound 156, 6-((1-((4-methylpyridin-2-yl)methyl)-3-oxoisoindolin-2-yl)methyl)benzo[d]oxazol-2(3H)-one], the EC50 was at least 5 µM in assay [1] (setting [5]) and 0.5 to 5 µM in assay [2] (setting [6]). The “Enzymatic Emax” value in assay [1] is “A (A>3)”. In addition, the maximal fold induction in assay [2] (setting [6]) was above 1.5.
For `O=C1c2ccccc2C(=O)N1Cc1ccc(O)cc1` [Compound 11, 2-(4-hydroxybenzyl)isoindoline-1,3-dione] the same measures were at least 5 µM, 5 to 50 µM, “B (3≥B>2)” and 1.2 to 1.5.
For `O=C1c2ccc(C3CC3)cc2C(Cc2ccccc2)N1Cc1ccc2[nH]c(=O)oc2c1` (stereo not drawn) [Compound 116, 6-((3-benzyl-5-cyclopropyl-1-oxoisoindolin-2-yl)methyl)benzo[d]oxazol-2(3H)-one] the same measures were below 0.5 µM, 0.5 to 5 µM, “B (3≥B>2)” and above 1.5.
As for `Cn1ncc(Cl)c1CC1c2cc(C#N)ccc2C(=O)N1Cc1ccc2[nH]nnc2c1` (stereo not drawn) [Compound 327, 2-((1H-benzo[d][1,2,3]triazol-5-yl)methyl)-3-((4-chloro-1-methyl-1H-pyrazol-5-yl)methyl)-1-oxoisoindoline-5-carbonitrile], the EC50 in assay [1] (setting [3]) is 0.5 to 5 µM. Moreover, in assay [1], the “Enzymatic Emax” value was “A (A>3)”. Further, in assay [2] (setting [4]), the EC50 was below 0.5 µM and the maximal fold induction was 1.2 to 1.5.
The like results for `O=C1NCC2(CC(CN3C(=O)c4ccccc4C3Cc3nnsc3Cl)C2)O1` (stereo not drawn) [Compound 538, 2-((1-((5-chloro-1,2,3-thiadiazol-4-yl)methyl)-3-oxoisoindolin-2-yl)methyl)-5-oxa-7-azaspiro[3.4]octan-6-one] were, in that order, at least 5 µM, “C (2≥C)”, 0.5 to 5 µM and above 1.5.
For the compound `Cn1c2ccccc2c(=O)n1Cc1ccc2[nH]c(=O)oc2c1` [Compound 46, 6-((1-methyl-3-oxo-1,3-dihydro-2H-indazol-2-yl)methyl)benzo[d]oxazol-2(3H)-one], in assay [1] (setting [5]), the EC50 was at least 5 µM. In addition, the “Enzymatic Emax” value in assay [1] is recorded as “B (3≥B>2)”. Moreover, in assay [2] (setting [6]), the EC50 was 5 to 50 µM and the maximal fold induction is above 1.5.
With `CN1CC(c2nn(C)c(CC3c4ccccc4C(=O)N3CC3CC4(CNC(=O)O4)C3)c2Cl)C1` (stereo not drawn) [Compound 509, 2-((1-((4-chloro-1-methyl-3-(1-methylazetidin-3-yl)-1H-pyrazol-5-yl)methyl)-3-oxoisoindolin-2-yl)methyl)-5-oxa-7-azaspiro[3.4]octan-6-one], in assay [1] (setting [3]), the EC50 is below 0.5 µM. Moreover, the “Enzymatic Emax” value in assay [1] is “A (A>3)”. In assay [2] (setting [4]), the EC50 was 0.5 to 5 µM and the maximal fold induction was above 1.5.
In the case of `N#Cc1ccc(CC2c3ccccc3C(=O)N2Cc2ccc3[nH]c(=O)oc3c2)c(F)c1` (stereo not drawn) [Compound 199, 3-fluoro-4-((3-oxo-2-((2-oxo-2,3-dihydrobenzo[d]oxazol-6-yl)methyl)isoindolin-1-yl)methyl)benzonitrile], in assay [1] (setting [5]), the EC50 is below 0.5 µM. Further, the “Enzymatic Emax” value in assay [1] is on record as “A (A>3)”. Also, in assay [2] (setting [6]), the EC50 is below 0.5 µM and the maximal fold induction was above 1.5.
Take `Cn1ncc(Cl)c1CC1c2ccccc2C(=O)N1Cc1ccc2c(c1)nnn2C` (stereo not drawn) [Compound 557, 3-((4-chloro-1-methyl-1H-pyrazol-5-yl)methyl)-2-((1-methyl-1H-benzo[d][1,2,3]triazol-5-yl)methyl)isoindolin-1-one]: the EC50 in assay [1] (setting [3]) is 0.5 to 5 µM; in assay [2] (setting [4]), below 0.5 µM. The “Enzymatic Emax” value in assay [1] is recorded as “A (A>3)”. The maximal fold induction in assay [2] (setting [4]) was above 1.5.
For the compound `COc1ccc(CN2C(=O)c3ccccc3C2Cc2c(Cl)c(Cl)nn2C)cc1` (stereo not drawn) [Compound 566, 3-((3,4-dichloro-1-methyl-1H-pyrazol-5-yl)methyl)-2-(4-methoxybenzyl)isoindolin-1-one], in assay [1] (setting [3]), the EC50 fell in the range of 0.5 to 5 µM. Further, the “Enzymatic Emax” value in assay [1] is reported as “A (A>3)”. In assay [2] (setting [4]), the EC50 was below 0.5 µM and the maximal fold induction is above 1.5.
Regarding `Cn1ncc(Cl)c1CC1c2cc(Cl)cc(F)c2C2(CC2)N1CC1CC2(CNC(=O)O2)C1` (stereo not drawn) [Compound 580, 2-((5′-chloro-3′-((4-chloro-1-methyl-1H-pyrazol-5-yl)methyl)-7′-fluorospiro[cyclopropane-1,1′-isoindolin]-2′-yl)methyl)-5-oxa-7-azaspiro[3.4]octan-6-one], the EC50 in assay [1] (setting [3]) and in assay [2] (setting [4]) was 0.5 to 5 µM each time. For the same compound, the “Enzymatic Emax” value in assay [1] is on record as “A (A>3)”. Also, in assay [2] (setting [4]), the maximal fold induction lay within 1.2 to 1.5.
